Laboratory results taken from patent US12195439B1, “C1-substituted isopropylamine fused heterocyclic mescaline derivatives” (Enveric Biosciences Canada Inc., priority 2022, dated 2025).
Where two headings read alike, the source gives them in different places.

Key:
5-HT1A receptor [1] = molecular target: T1, 5-HT1A receptor (Homo sapiens, UniProt P08908); assay: 5-HT1A receptor radioligand competition assay (SPA); type: binding; settings: 5-HT1A, Ki, competition with 0.5 nM [3H]8-hydroxy-DPAT, membranes containing 5-HT1A
T1 construct: purchased Perkin Elmer 6110501400UA
T1 sequence (P08908 1-422): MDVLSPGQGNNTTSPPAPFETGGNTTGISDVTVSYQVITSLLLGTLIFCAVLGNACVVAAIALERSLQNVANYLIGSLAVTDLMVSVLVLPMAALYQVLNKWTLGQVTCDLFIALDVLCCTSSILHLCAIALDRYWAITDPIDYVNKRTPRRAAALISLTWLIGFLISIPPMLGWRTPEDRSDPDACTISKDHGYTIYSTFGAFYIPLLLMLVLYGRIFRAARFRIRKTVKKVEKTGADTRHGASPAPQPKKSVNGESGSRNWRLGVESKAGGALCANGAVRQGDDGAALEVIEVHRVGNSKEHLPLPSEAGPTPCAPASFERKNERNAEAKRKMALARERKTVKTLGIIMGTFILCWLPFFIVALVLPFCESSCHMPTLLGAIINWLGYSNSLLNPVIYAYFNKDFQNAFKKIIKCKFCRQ

MT1 receptor = molecular target: T2, MT1 receptor (Homo sapiens, UniProt P48039); assay: Eurofins Cerep competition binding assay at MT1 receptor; settings: for inhibition at 10 µM: read-out: MT1, percent of control-specific binding, 10 μM test ligand, [125I]2-iodomelatonin, recombinant receptor from CHO cells; for MT1, percent of control-specific binding: 10 μM test ligand, [125I]2-iodomelatonin, recombinant receptor from CHO cells
T2 construct: host or cells: CHO cells (membrane preparation)
T2 sequence (P48039 whole entry): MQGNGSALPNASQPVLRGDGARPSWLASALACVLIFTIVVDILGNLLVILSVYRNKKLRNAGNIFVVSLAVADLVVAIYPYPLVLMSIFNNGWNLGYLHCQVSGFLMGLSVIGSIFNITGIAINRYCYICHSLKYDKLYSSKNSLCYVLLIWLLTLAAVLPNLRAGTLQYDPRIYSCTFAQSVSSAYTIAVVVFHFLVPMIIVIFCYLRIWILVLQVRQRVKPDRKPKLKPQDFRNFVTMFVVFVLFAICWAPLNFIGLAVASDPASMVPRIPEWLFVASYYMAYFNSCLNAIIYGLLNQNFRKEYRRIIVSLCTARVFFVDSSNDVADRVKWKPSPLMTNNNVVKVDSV

5-HT1A receptor [2] = molecular target: T1, 5-HT1A receptor; assay: Eurofins Cerep competition binding assay at 5-HT1A receptor; settings: 10 μM test ligand, [3H]8-OH-DPAT, recombinant receptor from HEK-293 cells; for inhibition at 10 µM: read-out: HT1A, percent of control-specific binding
[3] = molecular target: T3, norepinephrine transporter (NET) (Homo sapiens, UniProt P23975); assay: Eurofins Cerep competition binding assay at norepinephrine transporter; settings: for inhibition at 10 µM: read-out: NET, percent of control-specific binding, 10 μM test ligand, [3H]nisoxetine, recombinant transporter from CHO cells
T3 construct: host or cells: CHO cells (membrane preparation)
T3 sequence (P23975 whole entry): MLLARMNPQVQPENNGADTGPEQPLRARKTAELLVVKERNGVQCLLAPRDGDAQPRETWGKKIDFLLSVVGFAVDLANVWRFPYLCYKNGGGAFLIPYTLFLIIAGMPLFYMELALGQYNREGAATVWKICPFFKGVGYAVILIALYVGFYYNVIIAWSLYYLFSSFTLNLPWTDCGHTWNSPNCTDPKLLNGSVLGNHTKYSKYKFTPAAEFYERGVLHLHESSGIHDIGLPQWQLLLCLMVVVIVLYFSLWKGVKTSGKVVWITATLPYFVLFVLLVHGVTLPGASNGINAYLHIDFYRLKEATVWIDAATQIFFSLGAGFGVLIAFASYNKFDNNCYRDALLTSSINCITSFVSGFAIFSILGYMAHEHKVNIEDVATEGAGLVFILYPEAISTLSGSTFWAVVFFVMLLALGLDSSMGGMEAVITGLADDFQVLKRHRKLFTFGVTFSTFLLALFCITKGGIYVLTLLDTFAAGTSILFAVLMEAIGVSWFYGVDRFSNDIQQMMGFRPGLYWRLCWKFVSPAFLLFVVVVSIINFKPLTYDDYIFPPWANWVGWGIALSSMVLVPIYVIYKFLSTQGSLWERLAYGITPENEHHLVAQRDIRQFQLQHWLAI

alpha2A receptor = molecular target: T4, alpha2A receptor (Homo sapiens, UniProt P08913); assay: Eurofins Cerep competition binding assay at alpha2A receptor; settings: 10 μM test ligand, [3H]RX 821002, recombinant receptor from CHO cells; for inhibition at 10 µM: read-out: α-2A, percent of control-specific binding
T4 construct: host or cells: CHO cells (membrane preparation)
T4 sequence (P08913 1-465): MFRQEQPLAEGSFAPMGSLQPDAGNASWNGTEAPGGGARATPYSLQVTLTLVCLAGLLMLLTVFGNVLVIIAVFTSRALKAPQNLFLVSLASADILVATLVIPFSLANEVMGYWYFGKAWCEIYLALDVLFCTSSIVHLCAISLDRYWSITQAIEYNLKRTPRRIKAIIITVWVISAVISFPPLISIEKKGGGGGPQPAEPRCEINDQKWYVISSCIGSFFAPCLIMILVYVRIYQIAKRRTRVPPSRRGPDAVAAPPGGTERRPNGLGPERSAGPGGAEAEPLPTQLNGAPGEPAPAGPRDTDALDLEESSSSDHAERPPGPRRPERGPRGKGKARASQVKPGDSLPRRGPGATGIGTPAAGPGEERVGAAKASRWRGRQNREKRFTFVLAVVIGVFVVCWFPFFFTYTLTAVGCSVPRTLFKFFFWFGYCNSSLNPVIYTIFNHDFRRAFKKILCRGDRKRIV

[4] = molecular target: T5, serotonin transporter (SERT) (Homo sapiens, UniProt P31645); assay: biochemical; type: binding; settings: for inhibition at 10 µM: read-out: SERT, percent of control-specific binding
T5 construct: host or cells: CHO cells (membrane preparation)
T5 sequence (P31645 whole entry): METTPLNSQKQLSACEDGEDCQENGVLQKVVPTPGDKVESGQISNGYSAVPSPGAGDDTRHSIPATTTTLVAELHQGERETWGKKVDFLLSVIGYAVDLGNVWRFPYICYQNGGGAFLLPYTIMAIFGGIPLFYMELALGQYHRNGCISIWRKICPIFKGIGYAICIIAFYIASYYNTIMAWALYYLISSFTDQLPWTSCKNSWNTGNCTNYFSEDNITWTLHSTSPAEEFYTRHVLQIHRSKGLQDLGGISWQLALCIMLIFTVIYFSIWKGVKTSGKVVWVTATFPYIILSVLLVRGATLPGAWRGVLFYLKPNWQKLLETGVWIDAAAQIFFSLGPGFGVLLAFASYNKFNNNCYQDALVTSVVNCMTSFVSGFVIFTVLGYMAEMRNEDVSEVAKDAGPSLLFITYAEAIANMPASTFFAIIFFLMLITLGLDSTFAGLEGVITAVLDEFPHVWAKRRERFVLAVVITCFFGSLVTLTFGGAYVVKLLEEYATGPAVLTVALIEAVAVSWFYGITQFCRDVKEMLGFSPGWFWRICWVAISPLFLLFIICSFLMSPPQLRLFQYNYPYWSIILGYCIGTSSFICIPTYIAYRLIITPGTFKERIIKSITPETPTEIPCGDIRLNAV

5-HT2A receptor = molecular target: T6, 5-HT2A receptor (Homo sapiens, UniProt P28223); assay: biochemical; type: binding; settings: competition with 1 nM [3H]ketanserin, membranes containing 5-HT2A, SPA
T6 construct: purchased PerkinElmer ES-313-M400UA
T6 sequence (P28223 whole entry): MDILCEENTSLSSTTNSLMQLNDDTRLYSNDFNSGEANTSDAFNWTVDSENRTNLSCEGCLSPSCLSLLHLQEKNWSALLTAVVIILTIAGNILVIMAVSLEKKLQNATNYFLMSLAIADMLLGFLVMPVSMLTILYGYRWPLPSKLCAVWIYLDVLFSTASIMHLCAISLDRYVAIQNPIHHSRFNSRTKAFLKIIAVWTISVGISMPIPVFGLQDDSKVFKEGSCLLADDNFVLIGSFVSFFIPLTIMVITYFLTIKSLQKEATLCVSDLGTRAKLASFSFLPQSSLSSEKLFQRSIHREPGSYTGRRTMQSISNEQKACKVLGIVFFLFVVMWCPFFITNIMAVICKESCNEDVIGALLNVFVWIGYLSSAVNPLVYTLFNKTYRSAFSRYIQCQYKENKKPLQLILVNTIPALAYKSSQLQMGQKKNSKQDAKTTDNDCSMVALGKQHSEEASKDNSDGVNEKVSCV

5-HT7 receptor = molecular target: T7, 5-HT7 receptor (Homo sapiens, UniProt P34969); assay: Eurofins Cerep competition binding assay at 5-HT7 receptor; settings: 10 μM test ligand, [3H]LSD, recombinant receptor from HEK-293 cells; for inhibition at 10 µM: read-out: HT7, percent of control-specific binding
T7 construct: host or cells: HEK-293 cells (membrane preparation)
T7 sequence (P34969 whole entry): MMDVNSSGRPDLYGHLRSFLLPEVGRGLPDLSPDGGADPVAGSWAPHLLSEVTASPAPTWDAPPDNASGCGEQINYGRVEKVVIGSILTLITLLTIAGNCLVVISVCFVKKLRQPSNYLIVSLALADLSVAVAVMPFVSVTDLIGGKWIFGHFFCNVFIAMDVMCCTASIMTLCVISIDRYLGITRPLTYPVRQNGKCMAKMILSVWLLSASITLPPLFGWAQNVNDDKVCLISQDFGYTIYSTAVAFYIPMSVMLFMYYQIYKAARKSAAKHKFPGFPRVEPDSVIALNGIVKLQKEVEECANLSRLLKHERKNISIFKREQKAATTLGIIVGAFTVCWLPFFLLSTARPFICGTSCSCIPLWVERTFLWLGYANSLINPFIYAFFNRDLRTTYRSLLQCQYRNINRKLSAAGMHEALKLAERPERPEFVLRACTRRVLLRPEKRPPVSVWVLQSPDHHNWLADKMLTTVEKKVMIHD

5-HT2C receptor = molecular target: T8, 5-HT2C receptor (Homo sapiens, UniProt P28335); assay: Eurofins Cerep competition binding assay at 5-HT2C receptor; settings: 10 μM test ligand, [125I](±)DOI, recombinant receptor from HEK-293 cells; for inhibition at 10 µM: read-out: HT2C, percent of control-specific binding
T8 construct: host or cells: HEK-293 cells (membrane preparation)
T8 sequence (P28335 33-458): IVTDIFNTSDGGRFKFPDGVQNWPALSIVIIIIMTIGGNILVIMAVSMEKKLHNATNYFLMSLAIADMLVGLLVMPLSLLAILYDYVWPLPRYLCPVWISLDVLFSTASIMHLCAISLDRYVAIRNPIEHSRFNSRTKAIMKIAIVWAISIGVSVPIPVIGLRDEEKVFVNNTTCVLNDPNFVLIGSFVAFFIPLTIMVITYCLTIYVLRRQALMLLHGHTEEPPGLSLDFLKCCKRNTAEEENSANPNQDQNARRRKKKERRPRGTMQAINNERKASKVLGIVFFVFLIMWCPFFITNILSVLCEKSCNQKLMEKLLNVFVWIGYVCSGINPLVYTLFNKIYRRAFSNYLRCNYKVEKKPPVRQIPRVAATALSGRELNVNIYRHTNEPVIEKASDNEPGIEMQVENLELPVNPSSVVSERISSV

5-HT2B receptor = molecular target: T9, 5-HT2B receptor (Homo sapiens, UniProt P41595); assay: Eurofins Cerep competition binding assay at 5-HT2B receptor; settings: 10 μM test ligand, [3H]mesulergine, recombinant receptor from CHO cells; for inhibition at 10 µM: read-out: HT2B, percent of control-specific binding
T9 construct: host or cells: CHO cells (membrane preparation)
T9 sequence (P41595 whole entry): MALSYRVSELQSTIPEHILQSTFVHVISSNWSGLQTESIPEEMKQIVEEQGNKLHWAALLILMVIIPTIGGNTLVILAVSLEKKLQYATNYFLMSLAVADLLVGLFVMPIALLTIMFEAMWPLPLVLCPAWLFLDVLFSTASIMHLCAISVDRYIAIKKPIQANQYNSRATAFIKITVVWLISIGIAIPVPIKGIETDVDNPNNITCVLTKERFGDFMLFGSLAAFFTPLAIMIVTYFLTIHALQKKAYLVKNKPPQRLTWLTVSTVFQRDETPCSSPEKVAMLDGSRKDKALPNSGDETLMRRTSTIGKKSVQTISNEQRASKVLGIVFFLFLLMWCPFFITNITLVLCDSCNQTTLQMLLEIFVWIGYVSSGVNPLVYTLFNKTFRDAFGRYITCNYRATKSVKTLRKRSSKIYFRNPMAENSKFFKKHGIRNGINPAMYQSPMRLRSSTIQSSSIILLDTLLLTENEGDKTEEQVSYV

[5] = molecular target: T10, dopamine transporter (DAT) (Homo sapiens, UniProt Q01959); assay: Eurofins Cerep competition binding assay at dopamine transporter; settings: for inhibition at 10 µM: read-out: DAT, percent of control-specific binding, 10 μM test ligand, [3H]BTCP, recombinant transporter from CHO cells
T10 construct: host or cells: CHO cells (membrane preparation)
T10 sequence (Q01959 whole entry): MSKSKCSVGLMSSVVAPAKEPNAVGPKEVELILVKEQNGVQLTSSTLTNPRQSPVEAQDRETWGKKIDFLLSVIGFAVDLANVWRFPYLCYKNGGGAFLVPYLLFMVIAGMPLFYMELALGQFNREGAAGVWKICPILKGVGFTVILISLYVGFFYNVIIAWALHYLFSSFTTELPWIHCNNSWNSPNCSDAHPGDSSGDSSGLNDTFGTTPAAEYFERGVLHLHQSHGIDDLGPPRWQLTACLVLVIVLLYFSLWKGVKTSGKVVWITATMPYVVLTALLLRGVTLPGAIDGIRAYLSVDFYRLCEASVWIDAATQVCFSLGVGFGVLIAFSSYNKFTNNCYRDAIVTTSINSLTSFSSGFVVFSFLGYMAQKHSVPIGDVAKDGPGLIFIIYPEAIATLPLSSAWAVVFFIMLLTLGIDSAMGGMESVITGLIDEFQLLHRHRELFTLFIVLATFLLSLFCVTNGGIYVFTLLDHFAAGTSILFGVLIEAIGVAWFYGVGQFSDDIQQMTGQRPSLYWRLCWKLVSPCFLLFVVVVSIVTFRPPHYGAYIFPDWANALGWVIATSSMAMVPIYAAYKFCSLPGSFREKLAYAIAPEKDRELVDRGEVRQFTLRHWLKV

5-HT1A receptor [6] = molecular target: T1, 5-HT1A receptor; assay: 5-HT1A receptor functional cellular response (cAMP) assay; type: cell-based

## N[C@@H](Cc1c[nH]c2ccccc12)C(=O)O [tryptophan]
5-HT1A receptor [1]
  Ki: > 1000 µM
MT1 receptor
  inhibition at 10 µM: -2%
5-HT1A receptor [2]
  inhibition at 10 µM: 6%
[3]
  inhibition at 10 µM: 1%
alpha2A receptor
  inhibition at 10 µM: -4%
[4]
  inhibition at 10 µM: 1%
5-HT2A receptor
  Ki: > 1000 µM
5-HT7 receptor
  inhibition at 10 µM: 11%
5-HT2C receptor
  inhibition at 10 µM: 25%
5-HT2B receptor
  inhibition at 10 µM: 0%
[5]
  inhibition at 10 µM: 1%

## CC(C(O)c1ccc2c(c1)OCO2)N(C)Cc1ccccc1 (single isomer, unassigned) [B(III) as diast. (iii)]
5-HT1A receptor [1]
  Ki: 110 µM
MT1 receptor; 10 µM
  MT1, percent of control-specific binding: 0%
5-HT1A receptor [2]; 10 µM
  HT1A, percent of control-specific binding: 0%
[3]
  inhibition at 10 µM: 42%
alpha2A receptor; 10 µM
  α-2A, percent of control-specific binding: 7%
[4]
  inhibition at 10 µM: 58%
5-HT2A receptor
  Ki: 44 µM
5-HT7 receptor; 10 µM
  HT7, percent of control-specific binding: 10%
5-HT2C receptor; 10 µM
  HT2C, percent of control-specific binding: 5%
5-HT2B receptor; 10 µM
  HT2B, percent of control-specific binding: 3%
[5]
  inhibition at 10 µM: 75%

## CC(C(F)c1ccc2c(c1)OCO2)N(C)Cc1ccccc1 (single isomer, unassigned) [D(III) as diast. (vii)]
5-HT1A receptor [1]
  Ki: 11.3 µM
MT1 receptor
  inhibition at 10 µM: 23%
5-HT1A receptor [2]
  inhibition at 10 µM: 36%
[3]
  inhibition at 10 µM: 50%
alpha2A receptor
  inhibition at 10 µM: 86%
[4]
  inhibition at 10 µM: 35%
5-HT1A receptor [6]
  EC50: 156 µM
5-HT7 receptor
  inhibition at 10 µM: 60%
5-HT2C receptor
  inhibition at 10 µM: 36%
5-HT2B receptor
  inhibition at 10 µM: 29%
[5]
  inhibition at 10 µM: 69%

## CC(C(=O)c1ccc2c(c1)OCO2)N(C)Cc1ccccc1 (racemic) [A(III)]
5-HT1A receptor [1]
  Ki: 49 µM
MT1 receptor
  inhibition at 10 µM: 77%
5-HT1A receptor [2]
  inhibition at 10 µM: 4%
[3]
  inhibition at 10 µM: 38%
alpha2A receptor
  inhibition at 10 µM: 42%
[4]
  inhibition at 10 µM: 5%
5-HT2A receptor
  Ki: 53 µM
5-HT1A receptor [6]
  EC50: > 1000 µM
5-HT7 receptor
  inhibition at 10 µM: 0%
5-HT2C receptor
  inhibition at 10 µM: 7%
5-HT2B receptor
  inhibition at 10 µM: 32%
[5]
  inhibition at 10 µM: 74%

## COc1cc(CCN)cc(OC)c1OC [mescaline, 3,4,5 trimethoxyphenethylamine]
5-HT1A receptor [1]
  Ki: 8.5 µM
MT1 receptor
  inhibition at 10 µM: 6%
5-HT1A receptor [2]
  inhibition at 10 µM: 65%
[3]
  inhibition at 10 µM: -9%
alpha2A receptor
  inhibition at 10 µM: 57%
[4]
  inhibition at 10 µM: -6%
5-HT1A receptor [6]
  EC50: > 1000 µM
5-HT7 receptor
  inhibition at 10 µM: 38%
5-HT2C receptor
  inhibition at 10 µM: 95%
5-HT2B receptor
  inhibition at 10 µM: 80%
[5]
  inhibition at 10 µM: -1%

## CNC(C)Cc1ccc2c(c1)OCO2 (centres unmarked) [MDMA]
MT1 receptor
  MT1, percent of control-specific binding: 1%
5-HT1A receptor [2]
  HT1A, percent of control-specific binding: 68%
[3]; 10 μM test ligand, [3H]nisoxetine, recombinant transporter from CHO cells
  NET, percent of control-specific binding: 3%
alpha2A receptor
  α-2A, percent of control-specific binding: 27%
[4]; 10 µM
  SERT, percent of control-specific binding: 46%
5-HT1A receptor [6]; CHO-K1/5-HT1A/Gα15 cells stimulated with 4 μM forskolin, reduction of intracellular cAMP, read-out: 5-HT1A, EC50
  EC50: > 1000 µM
5-HT7 receptor
  HT7, percent of control-specific binding: 58%
5-HT2C receptor
  HT2C, percent of control-specific binding: 96%
5-HT2B receptor
  HT2B, percent of control-specific binding: 85%
[5]; 10 μM test ligand, [3H]BTCP, recombinant transporter from CHO cells
  DAT, percent of control-specific binding: 28%

## CNC(C)C(F)c1ccc2c(c1)OCO2 (single isomer, unassigned) [D(II) as diast. (vi)]
5-HT1A receptor [1]
  Ki: 6 µM
5-HT1A receptor [6]
  EC50: > 1000 µM

## C[C@@H]([C@H](F)c1ccc2c(c1)OCO2)N(C)Cc1ccccc1 [D(III) as diast. (vii)]
5-HT1A receptor [1]
  Ki: 11.3 µM
5-HT1A receptor [6]
  EC50: 156 µM

## CCCOc1c(OC)cc(CCN)cc1OC [proscaline]
5-HT1A receptor [1]
  Ki: 9.4 µM
MT1 receptor
  inhibition at 10 µM: 3%
5-HT1A receptor [2]
  inhibition at 10 µM: 71%
[3]
  inhibition at 10 µM: -9%
alpha2A receptor
  inhibition at 10 µM: 40%
[4]
  inhibition at 10 µM: 23%
5-HT2A receptor
  Ki: 82 µM
5-HT7 receptor
  inhibition at 10 µM: 5%
5-HT2C receptor
  inhibition at 10 µM: 97%
5-HT2B receptor
  inhibition at 10 µM: 85%
[5]
  inhibition at 10 µM: -2%

## CC(C(=O)c1ccc2c(c1)OCO2)N1CCCC1 (racemic) [A(I)]
5-HT1A receptor [1]
  Ki: 2 µM
MT1 receptor
  inhibition at 10 µM: 5%
5-HT1A receptor [2]
  inhibition at 10 µM: 73%
[3]
  inhibition at 10 µM: 59%
alpha2A receptor
  inhibition at 10 µM: 24%
[4]
  inhibition at 10 µM: 25%
5-HT2A receptor
  Ki: 131 µM
5-HT7 receptor
  inhibition at 10 µM: 3%
5-HT2C receptor
  inhibition at 10 µM: 45%
5-HT2B receptor
  inhibition at 10 µM: 19%
[5]
  inhibition at 10 µM: 95%
